# Results reported in ChEMBL document CHEMBL1212812, “Multi-target spectral moment QSAR versus ANN for antiparasitic drugs against different parasite species” (Bioorg Med Chem, 2010).
# Assays:
# Format in all cases: functional, organism-based
# [1] = tested on: Trypanosoma brucei; assay: Antimicrobial activity against Trypanosoma brucei
# [2] = tested on: Cryptosporidium parvum; assay: Antimicrobial activity against Cryptosporidium parvum
# [3] = tested on: Trypanosoma brucei rhodesiense; assay: Antimicrobial activity against Trypanosoma brucei rhodesiense
# [4] = tested on: Toxoplasma gondii; assay: Antimicrobial activity against Toxoplasma gondii
# [5] = tested on: Leishmania major; assay: Antimicrobial activity against Leishmania major
# [6] = tested on: Trypanosoma brucei brucei; assay: Antimicrobial activity against Trypanosoma brucei brucei
# [7] = tested on: Trypanosoma cruzi; assay: Antimicrobial activity against Trypanosoma cruzi; conditions: Trypanosoma cruzi
# [8] = tested on: Plasmodium falciparum; assay: Antimicrobial activity against Plasmodium falciparum
# [9] = tested on: Leishmania donovani; assay: Antimicrobial activity against Leishmania donovani
compound,measurement,setting,value
CCCCC12CC3CC(C1)CC(NC)(C3)C2,IC50,[1],2 µM
Nc1nc(N)c2cc(CN3c4ccccc4C=CC4C=CC=CC43)cnc2n1 (stereo not given),IC50,[2],1 µM
COc1cc(CCc2cc3c(N)nc(N)nc3s2)c(Br)c(OC)c1OC,IC50,[2],5 µM
N=C(N)NCCCNCCNC(=N)N,IC50,[3],20 µM
CSc1ccc2c(c1)cc1c3ccccc3nc-1n2C,IC50,[1],1 µM
COc1ccc(OC)c(NCc2ccc3nc(N)nc(N)c3n2)c1,IC50,[2],1 µM
CCCC1(CCC)CC(C)(C)CC(C)(N)C1 (stereo not given),IC50,[1],1 µM
CNC12CC3CC(C1)CC(C(C)C)(C3)C2,IC50,[1],6 µM
COc1cccc2nc(N)nc(N)c12,IC50,[2],3 µM
Nc1nc(N)c2nc(CN3c4ccccc4CC4C=CC=CC43)cnc2n1 (stereo not given),IC50,[2],1 µM
NC(=O)c1nnn(Cc2cc(Cl)c(C(=O)C34CC5CC(CC(C5)C3)C4)c(Cl)c2)c1N,IC50,[4]; Toxoplasma gondii,15 µM
C[C@@H]1[C@@H]2[C@@H](N)[C@@H]2CN1c1nc2c(cc1F)c(=O)c(C(=O)O)cn2-c1ccc(F)cc1F [TROVAFLOXACIN1],IC50,[4]; Toxoplasma gondii,1 µM
CC(C)(C)OC(=O)NCCNC(=S)N1CCN(N2CCN(C(=S)NCCNC(=O)OC(C)(C)C)CC2)CC1,IC50,[3],14 µM
NCCCC12CC3CC(CC(C3)C1)C2,IC50,[1],1 µM
O=[N+]([O-])c1cccc(Sc2cc3ccccc3[nH]2)c1,IC50,[4]; Toxoplasma gondii,2 µM
C=CC(C)(C)c1cc(/C=C/C(=O)c2ccc(O)cc2)c(OC)cc1O [LICOAGROCHACONE A],IC50,[5],14 µM
N[C@@H]1[C@H]2CN(c3cc4c(cc3F)c(=O)c(C(=O)O)cn4-c3ccc(F)cc3F)C[C@@H]12 [TROVAFLOXACIN6],IC50,[4]; Toxoplasma gondii,3 µM
N[C@@H]1[C@H]2CN(c3nc4c(cc3F)c(=O)c(C(=O)O)cn4-c3ccc(F)cc3F)C[C@@H]12 (stereo in doubt; form 2) [TROVAFLOXACIN],IC50,[4],2 µM
CN(CCCNC1=NCCN1)CCNC1=NCCN1,IC50,[3],2 µM
c1ccc2[nH]c(Sc3cccc4ccccc34)cc2c1,IC50,[4]; Toxoplasma gondii,3 µM
CCCC1(C)CC(C)(C)CC(C)(N)C1 (stereo not given),IC50,[1],2 µM
COc1cc(Cc2sc3nc(N)nc(N)c3c2C)c(Br)c(OC)c1OC,IC50,[2],2 µM
[O-][S+](c1ccccc1)c1cc2ccccc2[nH]1 (stereo not given),IC50,[4]; Toxoplasma gondii,50 µM
NCCCNCCN,IC50,[3],49 µM
C[C@@H]1[C@@H]2[C@@H](CN)[C@@H]2CN1c1nc2c(cc1F)c(=O)c(C(=O)O)cn2-c1ccc(F)cc1F [TROVAFLOXACIN7],IC50,[4]; Toxoplasma gondii,3 µM
C(CNCCNC1=NCCN1)CNC1=NCCN1,IC50,[3],11 µM
CN(Cc1cnc2nc(N)nc(N)c2n1)c1ccc(C(=O)NC(CO)CCO)cc1 (stereo not given),IC50,[2],2 µM
C[C@H]1[C@H](C)CC[C@]2(C(=O)O)CC[C@]3(C)C(=CC[C@@H]4[C@@]5(C)CC[C@H](O)C(C)(C)[C@@H]5CC[C@]43C)[C@H]12 [URSOLIC ACID],IC50,[4]; Toxoplasma gondii,1 µM
Nc1nc(N)c2nc(Cc3ccc(Cl)c(Cl)c3)c(Cc3ccc(Cl)c(Cl)c3)nc2n1,IC50,[2],4 µM
CC1CS(=O)(=O)CCN1/N=C/c1ccc([N+](=O)[O-])o1 (stereo not given) [NIFURTIMOX],IC50,[6],6 µM
same,IC50,[3],2 µM
N=C(NCCCN(CCNC(=N)NC1CCCCC1)C(=N)NC1CCCCC1)NC1CCCCC1,IC50,[3],21 µM
CCCC(C)NC(=O)c1ccc(N(C)Cc2cnc3nc(N)nc(N)c3n2)cc1 (stereo not given),IC50,[2],1 µM
COc1cc(Cc2cnc(N)nc2N)cc(OC)c1OC [TRIMETHOPRIM],IC50,[2],4 µM
CCC(=O)N1CCCCC1[C@](C)(O)[C@H]1CC[C@H]2[C@@H]3CC[C@H]4C[C@@H](O)CC[C@]4(C)[C@H]3CC[C@@]21C (stereo not given in full),IC50,[7],65 µM
same,IC50,[5],54 µM
Cn1c2nc3ccc(C#N)cc3c-2cc2ccccc21,IC50,[8],32 µM
same,IC50,[1],32 µM
C[C@]12CC[C@H](O)C[C@@H]1CC[C@@H]1[C@@H]2CC[C@@]2(C)[C@H]1CC[C@@H]2[C@@](C)(O)c1cccnc1,IC50,[7],50 µM
same,IC50,[5],100 µM
C[C@]12CC[C@H](O)C[C@@H]1CC[C@@H]1[C@@H]2CC[C@@]2(C)[C@H]1CC[C@@H]2[C@@](C)(O)C1CCCNC1 (stereo not given in full),IC50,[7],23 µM
same,IC50,[5],13 µM
COc1cccc2c1cc1c3ccccc3nc-1n2C,IC50,[1],1 µM
COc1cc(CN2CCc3nc(N)nc(N)c3C2)c(Br)c(OC)c1OC,IC50,[2],3 µM
Cn1c2nc3ccccc3c-2cc2cc([N+](=O)[O-])ccc21,IC50,[1],1 µM
O=C(CCN1CCCN(C(=O)OCc2ccccc2)C1)OCc1ccccc1,IC50,[3],3 µM
Cn1c2nc3ccccc3c-2cc2ccc(Br)cc21,IC50,[7],32 µM
same,IC50,[8],30 µM
same,IC50,[1],27 µM
Nc1nc(N)c2nc(CN3c4ccccc4SC4C=CC=CC43)cnc2n1 (stereo not given),IC50,[2],1 µM
O=C(NCCCN(CCO)CCNC(=O)OCc1ccccc1)OCc1ccccc1,IC50,[3],4 µM
NCCCN(CCN)CCc1c[nH]c2ccccc12,IC50,[3],16 µM
Cn1c2nc3ccccc3c-2cc2ccc(C(F)(F)F)cc21,IC50,[7],32 µM
same,IC50,[8],16 µM
same,IC50,[1],17 µM
Cn1c2nc3ccc(C#N)cc3c-2cc2cc(C(F)(F)F)ccc21,IC50,[7],32 µM
same,IC50,[1],32 µM
COc1ccc(OC)c(Cc2sc3nc(N)nc(N)c3c2C)c1,IC50,[2],1 µM
CN(CCCNC(=O)OCc1ccccc1)CCNC(=O)OCc1ccccc1,IC50,[3],21 µM
NC[C@@H]1[C@H]2CN(c3nc4c(cc3F)c(=O)c(C(=O)O)cn4-c3ccc(F)cc3F)C[C@@H]12 [TROVAFLOXACIN11],IC50,[4]; Toxoplasma gondii,9 µM
Cn1c2nc3ccccc3c-2cc2cc(Cl)ccc21,IC50,[1],1 µM
Nc1nc(N)nc(N/N=C\c2cccs2)n1,IC50,[6],89 µM
same,IC50,[3],10 µM
N[C@@H]1[C@H]2CN(c3nc4c(cc3F)c(=O)c(C(=O)O)cn4C3CC3)C[C@@H]12 [TROVAFLOXACIN4],IC50,[4]; Toxoplasma gondii,2 µM
Cn1c2nc3ccccc3c-2cc2ccc(Cl)cc21,IC50,[7],17 µM
same,IC50,[8],5 µM
same,IC50,[1],9 µM
Clc1ccc2[nH]c3nc4ccccc4c-3cc2c1,IC50,[7],32 µM
same,IC50,[8],32 µM
same,IC50,[1],32 µM
CN[C@H]1[C@@H]2CN(c3nc4c(cc3F)c(=O)c(C(=O)O)cn4-c3ccc(F)cc3F)C[C@@H]21 [TROVAFLOXACIN2],IC50,[4]; Toxoplasma gondii,1 µM
CCCN(CCC)c1ccc(S(=O)(=O)N([N+](=O)[O-])[N+](=O)[O-])cc1,IC50,[6],12 µM
same,IC50,[9],65 µM
NCC12CC1CN(c1nc3c(cc1F)c(=O)c(C(=O)O)cn3C1CC1)C2 (stereo not given) [TROVAFLOXACIN10],IC50,[4]; Toxoplasma gondii,12 µM
Nc1nc(N)c2nc(Cc3ccc(Cl)cc3)c(Cc3ccc(Cl)cc3)nc2n1,IC50,[2],1 µM
N/N=C/c1ccc([N+](=O)[O-])o1,IC50,[6],14 µM
same,IC50,[3],2 µM
N=C(N)c1ccc(NC(=O)Cn2cnc([N+](=O)[O-])c2)cc1,IC50,[6],200 µM
same,IC50,[3],80 µM
COc1ccc(OC)c(-c2sc3nc(N)nc(N)c3c2C)c1,IC50,[2],1 µM
Fc1ccc2[nH]c3nc4ccccc4c-3cc2c1,IC50,[7],32 µM
same,IC50,[8],32 µM
same,IC50,[1],32 µM
c1ccc(Sc2cc3ccccc3[nH]2)cc1,IC50,[4]; Toxoplasma gondii,1 µM
NC12CC1CN(c1nc3c(cc1F)c(=O)c(C(=O)O)cn3-c1ccc(F)cc1F)C2 (stereo not given) [TROVAFLOXACIN8],IC50,[4]; Toxoplasma gondii,7 µM
CCNC1(C)CC(C)(C)CC(C)(C)C1,IC50,[1],6 µM
Cc1c(F)c(N2C[C@@H]3[C@@H](N)[C@@H]3C2)nc2c1c(=O)c(C(=O)O)cn2-c1ccc(F)cc1F [TROVAFLOXACIN3],IC50,[4]; Toxoplasma gondii,1 µM
CCCN(CCC)c1c([N+](=O)[O-])cc(S(=O)(=O)NC(C)C)cc1[N+](=O)[O-],IC50,[6],4 µM
same,IC50,[9],100 µM
O=C(NCCCN(CCNC(=O)OCc1ccccc1)CCc1c[nH]c2ccccc12)OCc1ccccc1,IC50,[3],84 µM
COc1cc(Cc2sc3nc(N)nc(N)c3c2C)cc(OC)c1OC,IC50,[2],2 µM
NC[C@@H]1[C@H]2CN(c3nc4c(cc3F)c(=O)c(C(=O)O)cn4C3CC3)C[C@@H]12 [TROVAFLOXACIN9],IC50,[4]; Toxoplasma gondii,12 µM
c1ccc2cc(Sc3cc4ccccc4[nH]3)ccc2c1,IC50,[4]; Toxoplasma gondii,4 µM
Nc1nc(N)c2c(n1)CCC(Cc1ccsc1)C2 (stereo not given),IC50,[2],1 µM
Nc1nc(N)nc(N/N=C\c2ccco2)n1,IC50,[6],29 µM
same,IC50,[3],13 µM
Clc1cc(Cl)c2[nH]c3nc4ccccc4c-3cc2c1,IC50,[1],32 µM
CCCN(CCC)c1ccc(S(=O)(=O)Nc2ccccc2)cc1[N+](=O)[O-],IC50,[6],20 µM
same,IC50,[9],43 µM
Nc1nc(N)c2cc(/C=C/c3ccccc3)ccc2n1,IC50,[2],1 µM
CN(CCN)CCCN,IC50,[3],69 µM
CCCC1(N)CC(C)(C)CC(C)(C)C1,IC50,[1],6 µM
O=C(NCCCN1CCN(C(=O)OCc2ccccc2)C1)OCc1ccccc1,IC50,[3],1 µM
C1CN(N2CCNCC2)CCN1,IC50,[3],17 µM
CCC1CCc2nc(N)nc(N)c2C1 (stereo not given),IC50,[2],9 µM
N[C@@H]1[C@H]2CN(c3nc4c(cc3F)c(=O)c(C(=O)O)cn4-c3ccc(F)cc3F)C[C@@H]12 (stereo in doubt; form 1) [TROVAFLOXACIN],IC50,[4]; Toxoplasma gondii,3 µM
COc1ccc(Sc2cc3ccccc3[nH]2)cc1,IC50,[4]; Toxoplasma gondii,17 µM
O=[N+]([O-])c1ccc(Sc2cc3ccccc3[nH]2)cc1,IC50,[4]; Toxoplasma gondii,14 µM
COc1ccc2[nH]c3nc4ccccc4c-3cc2c1,IC50,[8],32 µM
same,IC50,[1],32 µM
Nc1nc(N)c2c(n1)-c1ccsc1CC2,IC50,[2],30 µM
O=[N+]([O-])c1ccc(/C=N/O)o1 [NIFUROXIME],IC50,[6],1 µM
same,IC50,[3],1 µM
N=C(N)c1ccc(NC(=O)Cn2ccnc2[N+](=O)[O-])cc1,IC50,[6],200 µM
same,IC50,[3],6 µM
CSc1c(Sc2ccc([N+](=O)[O-])cc2)[nH]c2ccccc12,IC50,[4]; Toxoplasma gondii,28 µM
CCCN(CCC)c1c([N+](=O)[O-])cc(S(=O)(=O)Nc2cccc(OC)c2)cc1[N+](=O)[O-],IC50,[6],1 µM
same,IC50,[9],8 µM
C1CNC(N2CCN(N3CCN(C4=NCCN4)CC3)CC2)=N1,IC50,[3],28 µM
CC(=O)OCCN(CCCNC(=O)OCc1ccccc1)CCNC(=O)OCc1ccccc1,IC50,[3],30 µM
COc1cc(Cc2csc3nc(N)nc(N)c23)c(Br)c(OC)c1OC,IC50,[2],3 µM
CCCC1CC(C)(C)CC(C)(N)C1 (stereo not given),IC50,[1],3 µM
CC(C)(C)CC(=O)N1CCN(N2CCN(C(=O)CC(C)(C)C)CC2)CC1,IC50,[3],5 µM
Nc1nc(N)c2c(n1)CCC(c1ccccc1)C2 (stereo not given),IC50,[2],2 µM
O=C(O)COCCOCCOc1cc(Cl)c(Cl)cc1Cl,IC50,[4]; Toxoplasma gondii,1 µM
